This note sets out measurements from ChEMBL document CHEMBL2401711, “Recent progress and future options in the development of GLP-1 receptor agonists for the treatment of diabesity” (Bioorg Med Chem Lett, 2013).

Series [1] in a line: Terminal half life in type 2 diabetes patient at 10 ug, sc bid. The settings on record: human, in vivo, read-out: beta t1/2 (converted). The series is classed as ADME, organism-based.
The nature of series [2]: (§1) Half life in human. Type of series: ADME, organism-based. To be noted: in vivo.
In another series the target is Albumin (Homo sapiens, UniProt P02768). The series is described as follows: Binding affinity to serum albumin (unknown origin) relative to control. The series is classed as ADME. To be noted: isolated protein.
Sequence of Albumin (P02768 whole entry): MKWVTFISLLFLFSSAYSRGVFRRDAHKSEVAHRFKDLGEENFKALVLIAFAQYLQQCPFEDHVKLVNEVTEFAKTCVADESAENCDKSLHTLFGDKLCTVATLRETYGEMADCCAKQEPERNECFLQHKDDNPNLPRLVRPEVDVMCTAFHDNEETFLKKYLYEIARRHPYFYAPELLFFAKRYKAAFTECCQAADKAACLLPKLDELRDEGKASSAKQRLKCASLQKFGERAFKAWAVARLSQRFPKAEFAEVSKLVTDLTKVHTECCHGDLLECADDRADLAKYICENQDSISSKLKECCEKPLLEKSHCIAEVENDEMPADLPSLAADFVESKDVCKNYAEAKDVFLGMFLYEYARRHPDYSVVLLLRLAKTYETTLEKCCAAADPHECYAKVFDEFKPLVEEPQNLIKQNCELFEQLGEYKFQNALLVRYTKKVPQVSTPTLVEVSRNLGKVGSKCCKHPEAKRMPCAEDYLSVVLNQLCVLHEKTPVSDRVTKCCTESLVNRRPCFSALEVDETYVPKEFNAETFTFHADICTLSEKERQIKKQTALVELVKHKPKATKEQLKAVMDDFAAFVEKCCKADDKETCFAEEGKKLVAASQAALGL
Series [3] is filed under the species Homo sapiens. Described as §1. Type of series: ADME, organism-based. To be noted: in vivo.
Series [4] relates to Homo sapiens. Put plainly: Antidiabetic activity in type 2 diabetes patient assessed as reduction of HbA1c at => 0.2 mg administered once per week measured after 12 weeks (reference value: 0.5%). The series is classed as functional, organism-based. Set-up: scale not given: the % may be the effect or the level left.
Series [5] relates to Homo sapiens. Put plainly: Antidiabetic activity in type 2 diabetes patient assessed as reduction of body weight at => 0.8 mg administered once per week measured after 12 weeks (reference value: 1.2 kg). The series is classed as functional, organism-based.
For series [6], the system named is Homo sapiens. The series is described as follows: Toxicity in type 2 diabetes patient assessed as gastro-intestinal side effects at 10 to 20 mg administered once per week up to 104 weeks. To be noted: in vivo, 17472 h. Type of series: organism-based.

Turning to `CC[C@H](C)[C@H](NC(=O)[C@H](C)NC(=O)CNC(=O)[C@H](Cc1ccccc1)NC(=O)[C@H](CC(N)=O)NC(=O)[C@H](CC(N)=O)NC(=O)[C@H](CO)NC(=O)[C@H](CO)NC(=O)[C@H](Cc1c[nH]cn1)NC(=O)[C@@H](NC(=O)[C@H](CC(C)C)NC(=O)[C@H](Cc1ccccc1)NC(=O)[C@H](CC(N)=O)NC(=O)[C@H](C)NC(=O)[C@H](CC(C)C)NC(=O)[C@H](CCCNC(=N)N)NC(=O)[C@H](CCC(N)=O)NC(=O)[C@@H](NC(=O)[C@H](C)NC(=O)[C@@H]1CSSC[C@H](NC(=O)[C@@H](N)CCCCN)C(=O)N[C@@H](CC(N)=O)C(=O)N[C@@H]([C@@H](C)O)C(=O)N[C@@H](C)C(=O)N[C@@H]([C@@H](C)O)C(=O)N1)[C@@H](C)O)C(C)C)C(=O)N[C@@H](CC(C)C)C(=O)N[C@@H](CO)C(=O)N[C@@H](CO)C(=O)N[C@H](C(=O)N[C@@H](CC(N)=O)C(=O)N[C@H](C(=O)NCC(=O)N[C@@H](CO)C(=O)N[C@@H](CC(N)=O)C(=O)N[C@H](C(=O)N[C@@H](Cc1ccc(O)cc1)C(=O)O)[C@@H](C)O)C(C)C)[C@@H](C)O` [AMYLIN], the half-life in series [1] was 2.4 h.
`CCCCCCCCCCCCCCCC(=O)N[C@@H](CCC(=O)NCCCC[C@H](NC(=O)[C@H](C)NC(=O)[C@H](C)NC(=O)[C@H](CCC(N)=O)NC(=O)CNC(=O)[C@H](CCC(=O)O)NC(=O)[C@H](CC(C)C)NC(=O)[C@H](Cc1ccc(O)cc1)NC(=O)[C@H](CO)NC(=O)[C@H](CO)NC(=O)[C@@H](NC(=O)[C@H](CC(=O)O)NC(=O)[C@H](CO)NC(=O)[C@@H](NC(=O)[C@H](Cc1ccccc1)NC(=O)[C@@H](NC(=O)CNC(=O)[C@H](CCC(=O)O)NC(=O)[C@H](C)NC(=O)[C@@H](N)Cc1cnc[nH]1)[C@@H](C)O)[C@@H](C)O)C(C)C)C(=O)N[C@@H](CCC(=O)O)C(=O)N[C@@H](Cc1ccccc1)C(=O)N[C@H](C(=O)N[C@@H](C)C(=O)N[C@@H](Cc1c[nH]c2ccccc12)C(=O)N[C@@H](CC(C)C)C(=O)N[C@H](C(=O)N[C@@H](CCCNC(=N)N)C(=O)NCC(=O)N[C@@H](CCCNC(=N)N)C(=O)NCC(=O)O)C(C)C)[C@@H](C)CC)C(=O)O` [LIRAGLUTIDE] showed a half-life in series [2] of 264 h. In addition, the Activity on Albumin was 99%.
Regarding SEMAGLUTIDE [listing 1 of 2 here], in the series listed under Homo sapiens [3], the t1/2 was 160 h.
As to SEMAGLUTIDE [listing 2 of 2 here], the Activity was under 1.7% in the series with Homo sapiens [4] and under 4.8 kg in the series with Homo sapiens [5].
With TASPOGLUTIDE, in the series on Homo sapiens [6], the Activity is 34%.
